Results: patent publication EP2386565A2, “Compounds and methods to inhibit or augment an inflammatory response” (Cambridge Enterprise Ltd., priority 1999, dated 2000)
Positions of bridges follow the written chain, without caps; N, C: chain ends. Non-standard residues stand in square brackets, D forms with d. Residues, ends and D or L forms follow the SMILES beside them. No end group written: not given here.

How the values were obtained:
[1] = test system: chemokine-induced THP-1 migration; assay: THP-1 trans-well migration assay, several chemokines together (averages, selectivity, pan-chemokine statements); format: cell-based, human; settings: for effect on chemokine-induced THP-1 migration (in words): MCP-1, MIP1α, IL-8 and SDF1α
Method: To determine whether an agent inhibits a chemokine-induced activity, such as macrophage recruitment, varying amounts of the agent are mixed with cells in the presence of a known chemoattractant. […] Chemokine (such as MCP-1, MIP1α, IL8 or SDF-1α), at a concentration known to cause significant migration of THP-1 cells in the trans-well migration assay, is placed in the lower compartment (Figure 1). Cells are then incubated at 37°C for a period sufficient to allow migration, e.g., 4 hours. After incubation, the cells are gently removed from the top of the filter with a pipette, 20 µl of 20 mM EDTA in simple PBS is added into each top well, and incubated for 20 minutes at 4°C. The filter is carefully flushed with media using a gentle flow, and removed. […] The media is carefully aspirated from each well, and the converted dye is solubilized by 20 µl of DMSO.
Chemotaxis was induced in a 96-well disposable chemotaxis chamber fitted with a 5 µM polycarbonate filter (PVP free, ChemoTX, Neuroprobe Inc., Cabin John). […] The framed filter was aligned with the holes in the corner of the filter frame and placed over the wells.
Peptides were dissolved in Milli Q water and then serially diluted in culture medium. In most cases, the serially diluted peptides were added to the upper compartment of the chemotaxis chamber. The chamber was incubated at 37°C in a humidified atmosphere of 5% CO2 for 4 hours.
After incubation, the cells were gently removed from the top of the filter with a pipette, 20 µl of 20 mM EDTA in PBS was added into each top well, and the mixture was incubated for 20 minutes at 4°C. The filter was then carefully flushed with media using a gentle flow, and removed. […] The curve was based on a two-fold dilution series of THP-1 cells (top standard 100,000 cells in 29 µl). […] The media was carefully aspirated from each well, and the converted dye was solubilized by 20 µl of DMSO.
Representative chemokines included […] ("CC"), MIP-1α and RANTES, and two alpha-chemokines ("CXC"), IL-8 and SDF-1α. Additionally, to determine the specificity ofpeptide 3(1-12)[MCP-1]
The number of pluses is a qualitative indicating of the activity of each peptide in each assay.

[2] = test system: HIV; format: cell-based; settings: ns = not significant
[3] = test system: gp120; settings: ns = not significant; >100 = ED50 not determined
Method: Binding assays. Cells (either Jurkat T-cells or THP-1 cells) were grown in RPMI 1640 medium supplemented with 10% fetal calf serum, 2 mM glutamine, 20 µM β-mercaptoethanol, 100 U/ml penicillin and 100 µg/ml streptomycin and maintained between 2 × 10^5 and 1 × 10^6 cells/ml. Prior to performing a binding assay, cells were spun out (100 × g; 4 minutes) and washed 3 times in ice-cold PBS. A volume of cell suspension in PBS containing 10^6 cells (for Jurkat cells) or 4 × 10^5 cells (for THP-1 cells) was pipetted into each well of a V-bottom 96-well plate (Gibco BRL) and spun out (100 x g; 4 minutes). Triplicate wells were then resuspended in 100 µl binding medium (PBS pH 7.2 containing 0.1% fatty acid-free bovine serum albumin (BSA)) containing labeled peptide in the presence or absence of various concentrations of unlabeled peptide. The plate was then incubated on ice for 90 minutes. Cells were washed 3 times with 380 µl of ice-cold PBS, spinning out the cells each time (100 × g; 4 minutes), and resuspended in 100 µl binding medium containing streptavidin-peroxidase (Amersham International) at 1:1000 dilution. Cells were incubated for a further 15 minutes on ice to allow labeling of any bound biotinylated peptide, then washed 4 times as above. Cells were then incubated with 200 µl TMB substrate (K-Blue, Bionostics) for 20 minutes at room temperature, and the reaction stopped by addition of 50 µl 2 M HCl. The plate was spun (3,000 × g; 3 minutes) and 200 µl of the colored product was transferred to an empty 96-well ELISA plate and the absorbance at 450 nm determined. For each assay, the absorbance of a blank reaction (no peptide added) was subtracted from all readings before further analysis.
Binding experiments with labeled peptide 2 were performed with 10 nM labeled peptide in each reaction.

Molecule | effect on chemokine-induced THP-1 migration (in words) [1] | % virus inhibition [2] | other results
CC[C@@H](C)[C@H]1NC(=O)[C@@H](CCC(N)=O)NC(=O)[C@H](N)CSSC[C@H](C(N)=O)NC(=O)[C@@H](CC(C)C)NC(=O)[C@@H](CC(=O)O)NC(=O)[C@H]2CCCN2C(=O)[C@@H](CCCCN)NC(=O)[C@@H](CCC(N)=O)NC(=O)[C@@H](CCCCN)NC(=O)[C@@H](Cc2c[nH]c3ccccc23)NC1=O (H-[dC][dQ][dI][dW][dK][dQ][dK][dP][dD][dL][dC]-NH2; disulfide 1-11) | very similar ED50s | – | Average ED50 ([1]; average inhibitory ED50 for THP-1 migration induced by each of the chemokines): 100 nM
CC[C@H](C)[C@H](NC(=O)[C@H](C)NC(=O)[C@H](CC(=O)O)NC(=O)[C@@H]1CCCN1C(=O)[C@H](CCC(N)=O)NC(=O)[C@H](C)N)C(=O)N[C@@H](CC(N)=O)C(=O)N[C@@H](C)C(=O)N1CCC[C@H]1C(=O)N[C@H](C(=O)N[C@H](C(=O)N[C@@H](CS)C(=O)N[C@@H](CS)C(=O)O)[C@@H](C)O)C(C)C [Peptide 1] (H-AQPDAINAPVTCC-OH; N-terminus and C-terminus assumed) | no significant effect | – | % inhibition at 100 µM of migration induced by any of the chemokines tested ([1]; 100 µM, CC and CXC chemokines): ≤ 20%
=cvaekpsksstirrysc= ([dC][dV][dA][dE][dK][dP][dS][dK][dS][dS][dT][dI][dR][dR][dY][dS][dC]; bridge 1-17 (inferred); not fully specified; printed as =cvaekpsksstirrysc=) | – | ns | gp120 ED-50 (µM) [3]: ns
CSYRRITSSKSPKEAVC | – | ns | gp120 ED-50 [3]: >100 µM
